Source: patent US10125100B2, “Kinase inhibitors” (Respivert Limited, priority 2014, dated 2018)

Legend:
p38 MAPKα (MAPK14) = p38 MAPKα (MAPK14) (Homo sapiens (Human), UniProt Q16539); assay: p38 MAPKα enzyme inhibition (Method 2), Z-LYTE FRET; format: biochemical
Protocol: (§1) The enzyme inhibitory activities of compounds disclosed herein are determined by FRET using synthetic peptides labelled with both donor and acceptor fluorophores (Z-LYTE, Invitrogen Ltd., Paisley, UK).
The following two assay variants can be used for determination of p38 MAPKα inhibition.
The inhibitory activities of test compounds against the p38 MAPKα isoform (MAPK14: Invitrogen) are evaluated indirectly by determining the level of activation/phosphorylation of the down-stream molecule, MAPKAP-K2. The p38 MAPKα protein (80 ng/mL, 2.5 μL) is mixed with the test compound (2.5 μL of either 4 μg/mL, 0.4 μg/mL, 0.04 μg/mL or 0.004 μg/mL) for 2 hr at RT. […] The mixture is incubated for 1 hr at RT. Development reagent (protease, 5 μL) is added for 1 hr prior to detection in a fluorescence microplate reader (Varioskan® Flash, ThermoFisher Scientific).
This method follows the same steps as Method 1 above, but utilises a higher concentration of the p38 MAPKα protein (2.5 μL of 200 ng/mL protein instead of 2.5 μL of 80 ng/mL protein) for mixing with the test compound (tested at either 1 μg/mL, 0.1 μg/mL, 0.01 μg/mL or 0.001 μg/mL).
(§2) In all cases, the site-specific protease cleaves non-phosphorylated peptide only and eliminates the FRET signal. Phosphorylation levels of each reaction are calculated using the ratio of coumarin emission (donor) over fluorescein emission (acceptor), for which high ratios indicate high phosphorylation and low ratios indicate low phosphorylation levels.

c-Src = c-Src (Homo sapiens (Human), UniProt P12931); assay: c-Src enzyme inhibition, Z-LYTE FRET; format: biochemical
c-Src, sequence (P12931 whole entry, looked up): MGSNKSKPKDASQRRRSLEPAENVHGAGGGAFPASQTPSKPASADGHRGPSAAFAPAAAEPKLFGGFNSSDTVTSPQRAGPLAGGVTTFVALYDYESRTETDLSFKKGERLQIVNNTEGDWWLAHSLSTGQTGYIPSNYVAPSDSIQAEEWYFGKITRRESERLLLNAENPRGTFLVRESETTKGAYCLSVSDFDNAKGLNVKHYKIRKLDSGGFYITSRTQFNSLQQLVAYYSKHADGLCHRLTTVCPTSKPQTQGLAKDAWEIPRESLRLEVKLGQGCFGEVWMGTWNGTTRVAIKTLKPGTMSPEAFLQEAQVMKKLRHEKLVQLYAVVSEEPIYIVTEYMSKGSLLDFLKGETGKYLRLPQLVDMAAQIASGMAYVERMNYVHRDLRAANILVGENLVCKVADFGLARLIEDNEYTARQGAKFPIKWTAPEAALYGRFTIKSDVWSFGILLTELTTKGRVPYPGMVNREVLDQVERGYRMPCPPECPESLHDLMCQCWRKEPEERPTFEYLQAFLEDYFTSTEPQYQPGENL
Protocol: as §1
(§3) The inhibitory activities of compounds of the invention against c-Src and Syk enzymes (Invitrogen), are evaluated in a similar fashion to that described hereinabove. The relevant enzyme (3000 ng/mL or 2000 ng/mL respectively, 2.5 μL) is incubated with the test compound (either 1 μg/mL, 0.1 μg/mL, 0.01 μg/mL, or 0.001 μg/mL, 2.5 μL each) for 2 hr at RT. The FRET peptides (8 μM, 2.5 μL), and appropriate ATP solutions (2.5 μL, 800 μM for c-Src, and 60 μM ATP for Syk) are then added to the enzymes/compound mixtures and the mixture incubated for 1 hr. Development reagent (protease, 5 μL) is added for 1 hr prior to detection in a fluorescence microplate reader (Varioskan® Flash, ThermoFisher Scientific).
as §2

Syk = Syk (Homo sapiens (Human), UniProt P43405); assay: Syk enzyme inhibition, Z-LYTE FRET; format: biochemical
Protocol: as §1
as §3, with “The” for “The inhibitory activities of compounds of the invention against c-Src and Syk enzymes (Invitrogen), are evaluated in a similar fashion to that described hereinabove. The”
as §2

mitosis in PBMCs = assay: (g) Cell mitosis assay; format: cell-based; conditions: Homo sapiens, PBMC, 5 μg/mL
Protocol: Peripheral blood mononucleocytes (PBMCs) from healthy subjects are separated from whole blood (Quintiles, London, UK) using a density gradient (Histopaque®-1077, Sigma-Aldrich, Poole, UK). The PBMCs (3 million cells per sample) are subsequently treated with 2% PHA (phytohaemagglutinin, Sigma-Aldrich, Poole, UK) for 48 hr, followed by a 20 hr exposure to varying concentrations of test compounds. At 2 hr before collection, PBMCs are treated with demecolcine (0.1 μg/mL; Invitrogen, Paisley, UK) to arrest cells in metaphase. To observe mitotic cells, PBMCs are permeabilized and fixed by adding Intraprep (50 μL; Beckman Coulter, France), and stained with anti-phospho-histone 3 ([…]; #9701; Cell Signalling, Danvers, Mass.) and propidium iodide (1 mg/mL; Sigma-Aldrich, Poole, UK) as previously described (Muehlbauer P. A. and Schuler M. J., Mutation Research, 2003, 537:117-130). Fluorescence is observed using an ATTUNE flow cytometer (Invitrogen, Paisley, UK), gating for lymphocytes.

Jurkat cells = assay: (r) Cell cytotoxicity assay; format: cell-based, human; conditions: 24 hours
Method in brief: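 Jurkat cells (1×10^5/well, RPMI + 10% FBS) exposed to compound at 20, 5 or 1 μg/mL final (1.0% DMSO control) for 24 h at 37° C., 5% CO2. Then stained with 7.5 μg/mL propidium iodide for 15 min. % viability = PI-negative cells by flow cytometry, normalized to DMSO.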

p38 MAPKα (MAPK14), sequence (Q16539 whole entry): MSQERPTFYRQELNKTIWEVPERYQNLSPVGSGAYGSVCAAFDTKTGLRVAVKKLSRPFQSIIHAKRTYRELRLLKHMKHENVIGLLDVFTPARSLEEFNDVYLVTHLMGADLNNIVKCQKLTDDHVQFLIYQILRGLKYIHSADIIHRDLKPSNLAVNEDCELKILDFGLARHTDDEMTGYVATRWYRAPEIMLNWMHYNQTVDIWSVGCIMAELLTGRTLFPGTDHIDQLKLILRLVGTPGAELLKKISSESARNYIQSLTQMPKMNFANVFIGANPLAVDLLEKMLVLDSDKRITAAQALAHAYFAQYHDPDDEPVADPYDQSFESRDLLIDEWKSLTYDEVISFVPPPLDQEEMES

SMILES | IC50 (p38 MAPKα (MAPK14)) [nM] | IC50 (c-Src) [nM] | IC50 (Syk) [nM] | inhibition at 5 µg/mL (mitosis in PBMCs) [%] | % Viability at 1 μg/mL (Jurkat cells) [%] | % Viability at 5 μg/mL (Jurkat cells) [%] | % Viability at 20 μg/mL (Jurkat cells) [%]
COc1cc(Nc2cc(Oc3ccc(NC(=O)Nc4cc(C(C)(C)C)cc(NS(C)(=O)=O)c4OC)c4ccccc34)ccn2)ccc1C(=O)NCCCN1CCN(C)CC1 [17(aa), 4-[[4-[[4-[[5-tert-butyl-3-(methanesulfonamido)-2-methoxy-phenyl]carbamoylamino]-1-naphthyl]oxy]-2-pyridyl]amino]-2-methoxy-N-[3-(4-methylpiperazin-1-yl)propyl]benzamide] | 20 | 24 | 61 | 77.7 |  |  | 
COc1cc(Nc2cc(Oc3ccc(NC(=O)Nc4cc(C(C)(C)C)cc(NS(C)(=O)=O)c4OC)c4ccccc34)ccn2)ccc1C(=O)NCCN(C)CCO [17(ac), 4-[[4-[[4-[[5-tert-butyl-3-(methanesulfonamido)-2-methoxy-phenyl]carbamoylamino]-1-naphthyl]oxy]-2-pyridyl]amino]-N-[2-[2-hydroxyethyl(methyl)amino]ethyl]-2-methoxy-benzamide] |  |  |  | 85.8 |  |  | 
COCCN(C)CCNC(=O)c1ccc(Nc2cc(Oc3ccc(NC(=O)Nc4cc(C(C)(C)C)cc(NS(C)(=O)=O)c4OC)c4ccccc34)ccn2)cc1OC [17(ad), 4-[[4-[[4-[[5-tert-butyl-3-(methanesulfonamido)-2-methoxy-phenyl]carbamoylamino]-1-naphthyl]oxy]-2-pyridyl]amino]-2-methoxy-N-[2-[2-methoxyethyl(methyl)amino]ethyl]-benzamide] |  |  |  | 93.4 | 101.4 | 6.3 | 0.4
COc1cc(Nc2cc(Oc3ccc(NC(=O)Nc4cc(C(C)(C)C)cc(NS(C)(=O)=O)c4OC)c4ccccc34)ccn2)ccc1C(=O)NCCN1CCCOCC1 [17(ai), 4-[[4-[[4-[[5-tert-butyl-3-(methanesulfonamido)-2-methoxy-phenyl]carbamoylamino]-1-naphthyl]oxy]-2-pyridyl]amino]-2-methoxy-N-[2-(1,4-oxazepan-4-yl)ethyl]benzamide] |  | 14 | 86 | 89.1 |  |  | 
COc1cc(Nc2cc(Oc3ccc(NC(=O)Nc4cc(C(C)(C)C)cc(NS(C)(=O)=O)c4OC)c4ccccc34)ccn2)ccc1C(=O)NCCCN1CCCOCC1 [17(aj), 4-[[4-[[4-[[5-tert-butyl-3-(methanesulfonamido)-2-methoxy-phenyl]carbamoylamino]-1-naphthyl]oxy]-2-pyridyl]amino]-2-methoxy-N-[3-(1,4-oxazepan-4-yl)propyl]benzamide] |  | 12 | 33 | 94.9 |  |  | 
COc1cc(Nc2cc(Oc3ccc(NC(=O)Nc4cc(C(C)(C)C)cc(NS(C)(=O)=O)c4OC)c4ccccc34)ccn2)ccc1C(=O)NCC1CCN(C)CC1 [17(ak), 4-[[4-[[4-[[5-tert-butyl-3-(methanesulfonamido)-2-methoxy-phenyl]carbamoylamino]-1-naphthyl]oxy]-2-pyridyl]amino]-2-methoxy-N-[(1-methyl-4-piperidyl)methyl]benzamide] |  | 12 | 85 | 74.7 | 99.0 | 69.5 | 0.4
COc1cc(Nc2cc(Oc3ccc(NC(=O)Nc4cc(C(C)(C)C)cc(NS(C)(=O)=O)c4OC)c4ccccc34)ccn2)ccc1C(=O)NCCN1CCC(F)(F)CC1 [17(al), 4-[[4-[[4-[[5-tert-butyl-3-(methanesulfonamido)-2-methoxy-phenyl]carbamoylamino]-1-naphthyl]oxy]-2-pyridyl]amino]-N-[2-(4,4-difluoro-1-piperidyl)ethyl]-2-methoxy-benzamide] |  |  |  | 21.2 |  |  | 
COc1cc(Nc2cc(Oc3ccc(NC(=O)Nc4cc(C(C)(C)C)cc(NS(C)(=O)=O)c4OC)c4ccccc34)ccn2)ccc1C(=O)NC1CCN(C)CC1 [17(j), 4-[[4-[[4-[[5-tert-butyl-3-(methanesulfonamido)-2-methoxy-phenyl]carbamoylamino]-1-naphthyl]oxy]-2-pyridyl]amino]-2-methoxy-N-(1-methyl-4-piperidyl)benzamide] | 21 | 16 | 39 | 85.4 |  |  | 
COc1cc(Nc2cc(Oc3ccc(NC(=O)Nc4cc(C(C)(C)C)cc(NS(C)(=O)=O)c4OC)c4ccccc34)ccn2)ccc1C(=O)NCCN1CCOCC1(C)C [17(k), 4-[[4-[[4-[[5-tert-butyl-3-(methanesulfonamido)-2-methoxy-phenyl]carbamoylamino]-1-naphthyl]oxy]-2-pyridyl]amino]-N-[2-(3,3-dimethylmorpholin-4-yl)ethyl]-2-methoxy-benzamide] | 156 | 74 | 336 | 24 |  |  | 
COc1cc(Nc2cc(Oc3ccc(NC(=O)Nc4cc(C(C)(C)C)cc(NS(C)(=O)=O)c4OC)c4ccccc34)ccn2)ccc1C(=O)NCCN1CCC(O)CC1 [17(m), 4-[[4-[[4-[[5-tert-butyl-3-(methanesulfonamido)-2-methoxy-phenyl]carbamoylamino]-1-naphthyl]oxy]-2-pyridyl]amino]-N-[2-(4-hydroxy-1-piperidyl)ethyl]-2-methoxy-benzamide] | 25 | 19 | 192 | 80.5 |  |  | 
COc1c(NC(=O)Nc2ccc(Oc3ccnc(Nc4ccc(C(=O)NCCN5CCOCC5)cc4)c3)c3ccccc23)cc(C(C)(C)C)cc1NS(C)(=O)=O [17(u), 4-[[4-[[4-[[5-tert-butyl-3-(methanesulfonamido)-2-methoxy-phenyl]carbamoylamino]-1-naphthyl]oxy]-2-pyridyl]amino]-N-(2-morpholinoethyl)benzamide] |  |  |  | 86.9 |  |  | 
COc1cc(Nc2cc(Oc3ccc(NC(=O)Nc4cc(C(C)(C)C)cc(NS(C)(=O)=O)c4OC)c4ccccc34)ccn2)ccc1C(=O)NCCCCN1CCOCC1 [17(y), 4-[[4-[[4-[[5-tert-butyl-3-(methanesulfonamido)-2-methoxy-phenyl]carbamoylamino]-1-naphthyl]oxy]-2-pyridyl]amino]-2-methoxy-N-(4-morpholinobutyl)benzamide] |  |  |  | 70.8 |  |  | 
COc1cc(Nc2cc(Oc3ccc(NC(=O)Nc4cc(C(C)(C)C)cc(NS(C)(=O)=O)c4OC)c4ccccc34)ccn2)ccc1C(=O)NCCN1CCN(CCO)CC1 [17(z), 4-[[4-[[4-[[5-tert-butyl-3-(methanesulfonamido)-2-methoxy-phenyl]carbamoylamino]-1-naphthyl]oxy]-2-pyridyl]amino]-N-[2-[4-(2-hydroxyethyl)piperazin-1-yl]ethyl]-2-methoxy-benzamide] |  |  |  | 69.7 | 102.9 | 70.9 | 2.0
